Test system: P12-Ichikawa
Test: cell viability relative to DMSO control; higher = less cytotoxic
Conditions: 48 h
In short: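 Viability, reported as a per-plate percentage of DMSO wells with cell-free wells as background, came from CellTiter-Glo One luminescence. Reading took place after 48 h at 37°C. Before that, NOMO1 or SEM (500 cells/well) or P12-Ichikawa (1000 cells/well) leukemia cells, adapted for at least four passages in each medium, were seeded in 1536-well plates (5 μl) and pin-dosed with library compounds in DMSO, 47 μM to 0.79 nM over 11 threefold points.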

[1] = HPLM + 10% dialyzed FBS, 0.000781 µM
[2] = HPLM + 10% dialyzed FBS, 0.00234 µM
[3] = HPLM + 10% dialyzed FBS, 0.00702 µM
[4] = HPLM + 10% dialyzed FBS, 0.0211 µM
[5] = HPLM + 10% dialyzed FBS, 0.0632 µM
[6] = HPLM + 10% dialyzed FBS, 0.19 µM
[7] = HPLM + 10% dialyzed FBS, 0.569 µM
[8] = HPLM + 10% dialyzed FBS, 1.71 µM
[9] = HPLM + 10% dialyzed FBS, 5.12 µM
[10] = HPLM + 10% dialyzed FBS, 15.4 µM
[11] = HPLM + 10% dialyzed FBS, 46.1 µM
[12] = RPMI 5 mM glucose + 10% FBS, 0.000781 µM
[13] = RPMI 5 mM glucose + 10% FBS, 0.00234 µM
[14] = RPMI 5 mM glucose + 10% FBS, 0.00702 µM
[15] = RPMI 5 mM glucose + 10% FBS, 0.0211 µM
[16] = RPMI 5 mM glucose + 10% FBS, 0.0632 µM
[17] = RPMI 5 mM glucose + 10% FBS, 0.19 µM
[18] = RPMI 5 mM glucose + 10% FBS, 0.569 µM
[19] = RPMI 5 mM glucose + 10% FBS, 1.71 µM
[20] = RPMI 5 mM glucose + 10% FBS, 5.12 µM
[21] = RPMI 5 mM glucose + 10% FBS, 15.4 µM
[22] = RPMI 5 mM glucose + 10% FBS, 46.1 µM
[23] = RPMI 5 mM glucose + 10% dialyzed FBS, 0.000781 µM
[24] = RPMI 5 mM glucose + 10% dialyzed FBS, 0.00234 µM
[25] = RPMI 5 mM glucose + 10% dialyzed FBS, 0.00702 µM
[26] = RPMI 5 mM glucose + 10% dialyzed FBS, 0.0211 µM
[27] = RPMI 5 mM glucose + 10% dialyzed FBS, 0.0632 µM
[28] = RPMI 5 mM glucose + 10% dialyzed FBS, 0.19 µM
[29] = RPMI 5 mM glucose + 10% dialyzed FBS, 0.569 µM
[30] = RPMI 5 mM glucose + 10% dialyzed FBS, 1.71 µM
[31] = RPMI 5 mM glucose + 10% dialyzed FBS, 5.12 µM
[32] = RPMI 5 mM glucose + 10% dialyzed FBS, 15.4 µM
[33] = RPMI 5 mM glucose + 10% dialyzed FBS, 46.1 µM

| Structure (SMILES) | cell viability [1] [%] | cell viability [2] [%] | cell viability [3] [%] | cell viability [4] [%] | cell viability [5] [%] | cell viability [6] [%] | cell viability [7] [%] | cell viability [8] [%] | cell viability [9] [%] | cell viability [10] [%] | cell viability [11] [%] | cell viability [12] [%] | cell viability [13] [%] | cell viability [14] [%] | cell viability [15] [%] | cell viability [16] [%] | cell viability [17] [%] | cell viability [18] [%] | cell viability [19] [%] | cell viability [20] [%] | cell viability [21] [%] | cell viability [22] [%] | cell viability [23] [%] | cell viability [24] [%] | cell viability [25] [%] | cell viability [26] [%] | cell viability [27] [%] | cell viability [28] [%] | cell viability [29] [%] | cell viability [30] [%] | cell viability [31] [%] | cell viability [32] [%] | cell viability [33] [%] |
| --- | --- | --- | --- | --- | --- | --- | --- | --- | --- | --- | --- | --- | --- | --- | --- | --- | --- | --- | --- | --- | --- | --- | --- | --- | --- | --- | --- | --- | --- | --- | --- | --- | --- |
| CNC1CCC(N(Cc2cccc(-c3ccncc3)c2)C(=O)c2sc3ccccc3c2Cl)CC1 (centres undefined) | 96.9 | 102 | 107 | 99.9 | 97.3 | 99.7 | 107 | 13.8 | 4.58 | 1.97 | 0.291 | 89.2 | 92.9 | 91.4 | 96.6 | 94.5 | 94.8 | 102 | 61.3 | 4.21 | 3.93 | 1.13 | 79.1 | 86.1 | 86.9 | 95.8 | 86.2 | 94.4 | 97.1 | 44.7 | 4.4 | 3.5 | 0.803 |
| CC(=O)O.Cc1c(-c2ccc(O)cc2)n(Cc2ccc(OCCN3CCCCCC3)cc2)c2ccc(O)cc12 | 103 | 101 | 99.2 | 98.1 | 101 | 111 | 101 | 106 | 106 | 101 | 100 | 92.3 | 92.5 | 92.4 | 87.6 | 99.3 | 103 | 96.1 | 109 | 101 | 100 | 101 | 89.2 | 94.5 | 96.3 | 94.5 | 92.5 | 98.9 | 98.3 | 95.4 | 113 | 104 | 100 |
| COC[C@H]1OC(=O)C2=COC3=C2[C@@]1(C)\C4=C(C5CCC(=O)[C@@]5(C)C[C@H]4OC(C)=O)/C3=O (some centres undefined) | 93.1 | 98.8 | 104 | 11.9 | 108 | 113 | 107 | 107 | 110 | 99.1 | 101 | 83.8 | 99.7 | 98.7 | 12.2 | 98.1 | 93.6 | 97.3 | 101 | 94.3 | 97 | 82 | 85.8 | 90 | 97.6 | 32.6 | 99.8 | 101 | 95.1 | 96.4 | 102 | 93.7 | 77 |
| CCc1cncnc1N1CCN(Cc2nc3cc(C(F)(F)F)ccc3[nH]2)CC1 | 103 | 106 | 100 | 102 | 103 | 102 | 94.1 | 97.9 | 85.7 | 84 | 58 | 101 | 97.6 | 95.2 | 97.2 | 101 | 88.8 | 97.2 | 101 | 88.1 | 74.9 | 44.9 | 96.6 | 105 | 102 | 103 | 95.6 | 97.3 | 96.4 | 101 | 86.5 | 84.7 | 55.3 |
| COC(=O)Nc1nc2cc(C(=O)c3cccs3)ccc2[nH]1 | 121 | 107 | 110 | 55.9 | 37 | 17.8 | 25.4 | 14.6 | 10.1 | 10.2 | 36.8 | 117 | 123 | 119 | 82 | 42.2 | 18.1 | 23.3 | 16.7 | 10.5 | 11.8 | 33.1 | 120 | 114 | 128 | 96.5 | 57.6 | 27.3 | 35 | 25.1 | 17.4 | 18.5 | 48 |
| COc1cc2c(cc1-c1c(C)noc1C)ncc1[nH]c(=O)n([C@H](C)c3ccccn3)c12 | 107 | 109 | 111 | 111 | 115 | 105 | 103 | 86.2 | 44.2 | 48.9 | 12.2 | 107 | 110 | 101 | 111 | 115 | 99.2 | 110 | 92.1 | 48.3 | 48.5 | 23.1 | 112 | 106 | 109 | 104 | 105 | 105 | 101 | 90.2 | 52.4 | 48.6 | 22.4 |
| CCC(C)SSc1ncc[nH]1 (centres undefined) | 91.9 | 99.9 | 97.1 | 105 | 98.2 | 103 | 94.9 | 111 | 101 | 69.5 | 10.6 | 92.8 | 102 | 91.1 | 90 | 96.1 | 95 | 93.8 | 98.1 | 99.7 | 62.1 | 6.08 | 92 | 91.4 | 93.5 | 90.4 | 90.1 | 95.8 | 89.9 | 97.6 | 92 | 34.8 | 5.7 |
| CCN(CC)CC#CCOC(=O)C(O)(c1ccccc1)C1CCCCC1 (centres undefined) | 105 | 118 | 113 | 78.3 | 119 | 110 | 120 | 117 | 118 | 118 | 106 |  |  |  |  |  |  |  |  |  |  |  | 118 | 119 | 120 | 85.5 | 137 | 135 | 125 | 123 | 122 | 117 | 111 |
| O=C(OC)[C@]12CC[C@@]3(C)[C@]4(C)CC[C@H]5[C@@](C)(C)C(=O)C(=C[C@]5(C)C4=CC(=O)[C@@H]3[C@@H]2C[C@](C)(C)CC1)C#N | 100 | 100 | 96.3 | 102 | 104 | 105 | 99.8 | 97.5 | 99.2 | 2.24 | 2.66 | 92.7 | 96.7 | 97.1 | 90.3 | 109 | 100 | 107 | 102 | 97 | 2.4 | 2.78 | 95.8 | 93.3 | 92.3 | 98.3 | 101 | 108 | 105 | 90.3 | 90.7 | 2.44 | 2.54 |
| CC/1=C/C(=O)N(O)/C(=C1)C2CCCCC2 | 115 | 118 | 123 | 132 | 130 | 125 | 121 | 127 | 113 | 74.8 | 28.5 |  |  |  |  |  |  |  |  |  |  |  |  |  |  |  |  |  |  |  |  |  |  |
| CC[C@H](CC#N)OC(=O)N[C@@H](C)c1cccc(NC(=O)Nc2ccc(-c3cnco3)c(OC)c2)c1 | 117 | 112 | 120 |  | 111 | 107 | 106 | 74.9 | 49.8 | 49.1 | 40.6 | 119 | 121 | 118 | 117 | 132 | 113 | 97.2 | 65.9 | 44.3 | 33.4 | 30.4 | 112 | 120 | 111 | 120 | 121 | 110 | 90.4 | 59.1 | 42.3 | 40.2 | 40.6 |
| COc1ccc(Cc2ccc(NC(N)=O)cc2)cc1-c1cccc(Cl)c1 | 112 | 115 | 127 | 121 | 118 | 118 | 123 | 124 | 126 | 122 | 116 | 114 | 134 | 122 | 131 | 130 | 127 | 117 | 130 | 149 | 132 | 124 | 110 | 120 | 113 | 111 | 117 | 119 | 115 | 131 | 121 | 124 | 113 |
| C/C=C(/C)C(=O)O[C@H]1C(C)=C2[C@H]([C@@H]1OC(=O)CCCCCCC)[C@@](C)(OC(C)=O)C[C@H](OC(=O)CCC)[C@@]1(O)[C@H]2OC(=O)[C@@]1(C)O | 103 | 114 | 111 | 109 | 104 | 71 | 38.5 | 51.5 | 67 | 69.8 | 75.2 | 120 | 129 | 107 | 125 | 96.8 | 66.4 | 22.1 | 23.8 | 46 | 48.2 | 42.4 | 109 | 121 | 123 | 112 | 95.7 | 52.6 | 13.3 | 8.27 | 16.7 | 20.3 | 22.7 |
| CC(N[C@H]1C[C@@H]1c1ccccc1)c1ccc2c(c1)OCCO2 (some centres undefined) | 119 | 117 | 121 | 128 | 119 | 118 | 116 | 113 | 107 | 112 | 104 |  |  |  |  |  |  |  |  |  |  |  |  |  |  |  |  |  |  |  |  |  |  |
| COc1ccc(CC2NCCc3cc(OC)c(OC)cc32)cc1OC (centres undefined) | 88.9 | 96.3 | 98.2 | 99.8 | 95 | 98.9 | 97.4 | 95.5 | 94 | 94 | 96.7 | 85.5 | 88.7 | 89 | 87.1 | 83.2 | 86 | 90.9 | 89.2 | 82.3 | 92.2 | 84.8 | 95 | 92.9 | 86.7 | 87.9 | 82.1 | 92.4 | 85.3 | 88.2 | 87.8 | 91.3 | 82.4 |

Reference: the supplement of paper PMC11451515
